ChEMBL document CHEMBL1133081, “Design and synthesis of potent hexapeptide and heptapeptide gonadotropin-releasing hormone antagonists by truncation of a decapeptide analogue sequence” (J Med Chem, 2000)
pIC50: −log10 of the molar value.

Biological target: T1, Gonadotropin-releasing hormone receptor (Rattus norvegicus, UniProt P30969)
T1 sequence (P30969 whole entry): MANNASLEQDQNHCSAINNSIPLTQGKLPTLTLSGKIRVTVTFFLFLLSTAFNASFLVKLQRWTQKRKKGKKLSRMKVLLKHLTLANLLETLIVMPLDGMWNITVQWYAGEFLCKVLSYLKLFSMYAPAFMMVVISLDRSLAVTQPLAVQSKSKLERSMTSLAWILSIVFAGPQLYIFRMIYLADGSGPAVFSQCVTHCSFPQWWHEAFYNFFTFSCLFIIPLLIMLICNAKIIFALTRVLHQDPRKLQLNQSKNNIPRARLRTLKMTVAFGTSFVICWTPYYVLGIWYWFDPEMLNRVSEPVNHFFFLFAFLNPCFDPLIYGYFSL
Test: Concentration of the peptide which displaces 50% of 125 I-[D-Lys6] gonadotropin-releasing hormone bound to rat pituitary membranes
Assay type: cell membranes, Membrane

| pIC50 | SMILES |
| --- | --- |
| 6.89 | CC(=O)N[C@H](Cc1ccc2ccccc2c1)C(=O)N[C@H](Cc1ccc(Cl)cc1)C(=O)N[C@H](Cc1ccccn1)C(=O)N[C@H](C)C(=O)N[C@@H](CCCCNC(C)C)C(=O)N1CCC[C@H]1C(=O)N[C@H](C)C(N)=O |
| 7.13 | CC(=O)N[C@H](Cc1ccc2ccccc2c1)C(=O)N[C@H](Cc1ccc(Cl)cc1)C(=O)N[C@H](Cc1ccccn1)C(=O)N[C@H](CC(C)C)C(=O)N[C@@H](CCCNC(=N)N)C(=O)N1CCC[C@H]1C(=O)N[C@H](C)C(N)=O |
| 7.14 | CC(=O)N[C@H](Cc1ccc2ccccc2c1)C(=O)N[C@H](Cc1ccc(Cl)cc1)C(=O)N[C@H](Cc1ccccn1)C(=O)N[C@H](CCCN=C(N)N)C(=O)N[C@@H](CCCNC(N)=O)C(=O)N1CCC[C@H]1C(=O)N[C@H](C)C(N)=O |
| 7.35 | CC(=O)N[C@H](Cc1ccc2ccccc2c1)C(=O)N[C@H](Cc1ccc(Cl)cc1)C(=O)N[C@H](Cc1ccccn1)C(=O)NCC(=O)N1CCC[C@H]1C(=O)N[C@H](C)C(N)=O |
| 6.43 | CC(=O)N[C@H](Cc1cccc2ccccc12)C(=O)N[C@H](Cc1ccccc1)C(=O)N[C@H](Cc1ccccc1)C(=O)NCC(=O)N[C@@H](CCCNC(=N)N)C(=O)N1CCC[C@H]1C(=O)N[C@H](C)C(N)=O |
| 6.26 | CC(=O)N[C@@H](Cc1ccc2ccccc2c1)C(=O)N[C@H](Cc1ccc(Cl)cc1)C(=O)N[C@H](Cc1ccccn1)C(=O)N[C@H](CCCCN)C(=O)N1CCC[C@@H]1C(=O)N[C@@H](C)C(N)=O |
| 7.55 | CC(=O)N[C@H](Cc1ccc2ccccc2c1)C(=O)N[C@H](Cc1ccc(Cl)cc1)C(=O)N[C@H](Cc1ccccn1)C(=O)N[C@@H](C)C(=O)N[C@@H](CCCNC(=N)N)C(=O)N1CCC[C@H]1C(=O)N[C@H](C)C(N)=O |
| 7.15 | CC(=O)N[C@H](Cc1ccc2ccccc2c1)C(=O)N[C@H](Cc1ccc(Cl)cc1)C(=O)N[C@H](Cc1ccccn1)C(=O)N[C@H](CCCNC(=N)N)C(=O)N1CCC[C@H]1C(=O)N[C@H](C)C(N)=O |
| 6.85 | CC(=O)N[C@H](Cc1ccc2ccccc2c1)C(=O)N[C@H](Cc1ccc(Cl)cc1)C(=O)N[C@H](Cc1ccccn1)C(=O)Nc1ccccc1C(=O)N[C@@H](CCCNC(=N)N)C(=O)N1CCC[C@H]1C(=O)N[C@H](C)C(N)=O |
| 6.96 | CC(=O)N[C@H](Cc1ccc2ccccc2c1)C(=O)N[C@H](Cc1ccc(Cl)cc1)C(=O)N[C@H](Cc1cccnc1)C(=O)N1CCC[C@H]1C(=O)N[C@@H](CCCN=C(N)N)C(=O)N1CCC[C@H]1C(=O)N[C@H](C)C(N)=O |
| 7.80 | CC(=O)N[C@H](Cc1ccc2ccccc2c1)C(=O)N[C@H](Cc1ccc(Cl)cc1)C(=O)N[C@H](Cc1ccccn1)C(=O)NCC(=O)N[C@H](CCCNC(=N)N)C(=O)N1CCC[C@H]1C(=O)N[C@H](C)C(N)=O |
| 7.60 | CC(=O)N[C@@H](Cc1ccc2ccccc2c1)C(=O)N[C@H](Cc1ccc(Cl)cc1)C(=O)N[C@H](Cc1ccccn1)C(=O)N[C@@H](Cc1ccc(O)cc1)C(=O)N[C@H](CCCN=C(N)N)C(=O)N1CCC[C@@H]1C(=O)N[C@@H](C)C(N)=O |
| 7.64 | CC(=O)N[C@H](Cc1ccc2ccccc2c1)C(=O)N[C@H](Cc1ccc(Cl)cc1)C(=O)N[C@H](Cc1ccccn1)C(=O)N[C@H](C)C(=O)N[C@@H](CCCNC(N)=O)C(=O)N1CCC[C@H]1C(=O)N[C@H](C)C(N)=O |
| 7.06 | CCCC[C@H](NC(=O)[C@@H](C)NC(=O)[C@@H](Cc1ccccn1)NC(=O)[C@@H](Cc1ccc(Cl)cc1)NC(=O)[C@@H](Cc1ccc2ccccc2c1)NC(C)=O)C(=O)N1CCC[C@H]1C(=O)N[C@H](C)C(N)=O |
| 8.15 | CC(=O)N[C@H](Cc1ccc2ccccc2c1)C(=O)N[C@H](Cc1ccc(Cl)cc1)C(=O)N[C@H](Cc1ccccn1)C(=O)NCC(=O)N[C@@H](CCCN=C(N)N)C(=O)N1CCC[C@H]1C(=O)N[C@H](C)C(N)=O |
| 7.42 | CC(=O)N[C@H](Cc1ccc2ccccc2c1)C(=O)N[C@H](Cc1ccc(Cl)cc1)C(=O)N[C@H](Cc1ccccn1)C(=O)NCCC(=O)N[C@@H](CCCNC(=N)N)C(=O)N1CCC[C@H]1C(=O)N[C@H](C)C(N)=O |
| 7.85 | CC(=O)N[C@H](Cc1ccc2ccccc2c1)C(=O)N[C@H](Cc1ccc(Cl)cc1)C(=O)N[C@H](Cc1ccccn1)C(=O)N[C@H](C)C(=O)N[C@@H](CCCCNNC(=O)c1cccnc1)C(=O)N1CCC[C@H]1C(=O)N[C@H](C)C(N)=O |
| 6.64 | CC(=O)N[C@H](Cc1ccccc1)C(=O)N[C@H](Cc1ccccc1)C(=O)N[C@H](Cc1ccccc1)C(=O)NCC(=O)N[C@@H](CCCNC(=N)N)C(=O)N1CCC[C@H]1C(=O)N[C@H](C)C(N)=O |
| 7.70 | CC(=O)N[C@H](Cc1ccc2ccccc2c1)C(=O)N[C@H](Cc1ccc(Cl)cc1)C(=O)N[C@H](Cc1ccccn1)C(=O)N[C@H](C)C(=O)N[C@@H](CCCCN)C(=O)N1CCC[C@H]1C(=O)N[C@H](C)C(N)=O |
| 7.51 | CC(=O)N[C@H](Cc1ccc2ccccc2c1)C(=O)N[C@H](Cc1ccc(Cl)cc1)C(=O)N[C@H](Cc1ccccn1)C(=O)N(C)CC(=O)N[C@@H](CCCNC(=N)N)C(=O)N1CCC[C@H]1C(=O)N[C@H](C)C(N)=O |
| 7.77 | CC(=O)N[C@H](Cc1ccc2ccccc2c1)C(=O)N[C@H](Cc1ccc(Cl)cc1)C(=O)N[C@H](Cc1ccccn1)C(=O)N[C@H](C)C(=O)N[C@@H](CCCNC(=N)N)C(=O)N1CCC[C@H]1C(=O)N[C@H](C)C(N)=O |
| 6.35 | CC(=O)N[C@H](Cc1c[nH]c2ccccc12)C(=O)N[C@H](Cc1ccccc1)C(=O)N[C@H](Cc1ccccc1)C(=O)NCC(=O)N[C@@H](CCCN=C(N)N)C(=O)N1CCC[C@H]1C(=O)N[C@H](C)C(N)=O |
| 7.09 | CC(=O)N[C@H](Cc1ccc2ccccc2c1)C(=O)N[C@H](Cc1ccc(Cl)cc1)C(=O)N[C@H](Cc1ccccn1)C(=O)N[C@@H](CC(C)C)C(=O)N[C@@H](CCCN=C(N)N)C(=O)N1CCC[C@H]1C(=O)N[C@H](C)C(N)=O |
| 6.89 | CC(=O)N[C@H](Cc1ccc2ccccc2c1)C(=O)N[C@H](Cc1ccc(Cl)cc1)C(=O)N[C@H](Cc1ccccn1)C(=O)N[C@@H](CCCN=C(N)N)C(=O)N1CCC[C@H]1C(=O)N[C@H](C)C(N)=O |
| 7.55 | CC(=O)N[C@H](Cc1ccc2ccccc2c1)C(=O)N[C@H](Cc1ccccc1)C(=O)N[C@H](Cc1ccccc1)C(=O)NCC(=O)N[C@@H](CCCN=C(N)N)C(=O)N1CCC[C@H]1C(=O)N[C@H](C)C(N)=O |
| 5.66 | C[C@@H](NC(=O)[C@@H]1CCCN1C(=O)[C@H](CCCNC(=N)N)NC(=O)CNC(=O)[C@@H](Cc1ccccc1)NC(=O)[C@@H](Cc1ccccc1)NC(=O)[C@@H](Cc1ccc2ccccc2c1)NC(=O)OCC1c2ccccc2-c2ccccc21)C(N)=O |
| 5.82 | CC(=O)N[C@H](Cc1ccc2ccccc2c1)C(=O)N[C@H](Cc1ccc(Cl)cc1)C(=O)N[C@H](Cc1ccccn1)C(=O)N[C@H](C)C(=O)N1CCC[C@H]1C(=O)N[C@H](C)C(N)=O |
| 6.55 | C[C@@H](NC(=O)[C@@H]1CCCN1C(=O)[C@H](CCCN=C(N)N)NC(=O)CNC(=O)[C@@H](Cc1ccccc1)NC(=O)[C@@H](Cc1ccccc1)NC(=O)[C@H](N)Cc1ccc2ccccc2c1)C(N)=O |
| 7.38 | CC(=O)N[C@H](Cc1ccc2ccccc2c1)C(=O)N[C@H](Cc1ccc(Cl)cc1)C(=O)N[C@H](Cc1ccccn1)C(=O)NC1(C(=O)N[C@@H](CCCN=C(N)N)C(=O)N2CCC[C@H]2C(=O)N[C@H](C)C(N)=O)CCC1 |
